From patent US20170226150A1, “TRITERPENOID COMPOSITION OF ANTRODIA CINNAMOMEA, PREPARATION AND ANALYSIS METHOD THEREOF” (KAOHSIUNG MEDICAL UNIVERSITY, priority 2011, published 2017)
≈ marks a conversion by molar mass, not a printed value.

How the values were obtained:
[1] = test system: Molt 4 human acute lymphoblastic leukemia cells; test: Cytotoxicity test, MTT colorimetric method, Molt 4; assay type: cell-based
Method: (§1) The cytotoxicity test of the obtained major ergostane triterpenoid compounds (zhankuic acid A, zhankuic acid C, antcin C and antcin K) and their stereoisomeric pure compounds (compounds E1 to E6 and E9 to E10) were performed on three leukemia cell lines using MTT (3-(4,5-dimethylthiazol-2-yl)-2,5-diphenyltetrazolium bromide) colorimetric method, and the results were referred to Table 8.

[2] = test system: CCRF-CEM human acute lymphoblastic leukemia cells; test: Cytotoxicity test, MTT colorimetric method, CCRF-CEM; assay type: cell-based
Method: as §1

[3] = test system: HL 60 human promyelocytic leukemia cells; test: Cytotoxicity test, MTT colorimetric method, HL 60; assay type: cell-based
Method: as §1

[4] = Solubility in solvents for optical rotation measurement; assay type: physicochemical; settings: methanol or ethanol
Method: After determining the absolute configuration, we tried to measure the optical rotation aiming to complete the spectral profile for the isolated compounds. In a previous report, the mixture form of zhankuic acid A was dissolved in methanol to measure its optical rotation. […] The solubility of compounds E9 and E10 improved through using acetone-methanol mixture. Considering compounds solubility and the convenience of collecting physical and spectral data using single solvent, pyridine was used in optical rotation experiment. The optical rotation of compound E9 was [α]D^25+32.1 (c 0.70, pyridine), and that of compound E10 was [α]D^25+9.0 (c 0.84, pyridine).

Molecule | IC50 (μg/ml) Molt 4 [1] [µg/mL] | IC50 (μg/ml) CCRF-CEM [2] [µg/mL] | IC50 (μg/ml) HL 60 [3] [µg/mL] | solubility in single solvent [4]
3α,4β,7β-trihydroxy-4α-methylergosta-8,24(28)-dien-11-on-25S-26-oic acid [Compound E1] | >80 | >80 | >80 | –
C=C(CC[C@@H](C)[C@H]1CC[C@H]2C3=C(C(=O)C[C@]12C)[C@@]1(C)CC[C@@H](O)[C@](C)(O)[C@@H]1C[C@@H]3O)[C@@H](C)C(=O)O [Compound E2, 3α,4β,7β-trihydroxy-4α-methylergosta-8,24(28)-dien-11-on-25R-26-oic acid] | >80 | >80 | >80 | –
C=C(CC[C@@H](C)[C@H]1CC[C@H]2C3=C(C(=O)C[C@]12C)[C@@]1(C)CCC(=O)[C@@H](C)C1C[C@@H]3O)[C@H](C)C(=O)O (stereo partly drawn) [Compound E3, 7β-hydroxy-4α-methylergosta-8,24(28)-dien-3,11-dion-25S-26-oic acid] | 77.04 ± 2.78 (≈ 164 µM) | 30.681 ± 5.30 (≈ 65.2 µM) | >80 | –
C=C(CC[C@@H](C)[C@H]1CC[C@H]2C3=C(C(=O)C[C@]12C)[C@@]1(C)CCC(=O)[C@@H](C)C1C[C@@H]3O)[C@@H](C)C(=O)O (stereo partly drawn) [Compound E4, 7β-hydroxy-4α-methylergosta-8,24(28)-dien-3,11-dion-25R-26-oic acid] | 54.28 ± 1.96 (≈ 115 µM) | 27.94 ± 6.44 (≈ 59.4 µM) | >80 | –
C=C(CC[C@@H](C)[C@H]1CC[C@H]2C3=C(C(=O)[C@H](O)[C@]12C)[C@@]1(C)CC[C@@H](O)[C@@H](C)C1CC3=O)[C@@H](C)C(=O)O (stereo partly drawn) [Compound E5, 3α,12α-dihydroxy-4α-methylergosta-8,24(28)-dien-7,11-dion-25R-26-oic acid] | >80 | >80 | >80 | –
C=C(CC[C@@H](C)[C@H]1CC[C@H]2C3=C(C(=O)[C@H](O)[C@]12C)[C@@]1(C)CC[C@@H](O)[C@@H](C)C1CC3=O)[C@H](C)C(=O)O (stereo partly drawn) [Compound E6, 3α,12α-dihydroxy-4α-methylergosta-8,24(28)-dien-7,11-dion-25S-26-oic acid] | >80 | >80 | >80 | –
C=C(CC[C@@H](C)[C@H]1CC[C@H]2C3=C(C(=O)C[C@]12C)[C@@]1(C)CCC(=O)[C@@H](C)C1CC3=O)[C@H](C)C(=O)O (stereo partly drawn) [Compound E9, 4α-methylergosta-8,24(28)-dien-3,7,11-trion-25S-26-oic acid] | 42.16 ± 2.33 (≈ 90 µM) | 21.99 ± 7.91 (≈ 46.9 µM) | 54.67 ± 8.14 (≈ 117 µM) | not sufficient
C=C(CC[C@@H](C)[C@H]1CC[C@H]2C3=C(C(=O)C[C@]12C)[C@@]1(C)CCC(=O)[C@@H](C)C1CC3=O)[C@@H](C)C(=O)O (stereo partly drawn) [Compound E10, 4α-methylergosta-8,24(28)-dien-3,7,11-trion-25R-26-oic acid] | 16.44 ± 3.77 (≈ 35.1 µM) | 22.90 ± 7.60 (≈ 48.9 µM) | 23.32 ± 1.60 (≈ 49.8 µM) | not sufficient
C=C(CC[C@@H](C)[C@H]1CC[C@H]2C3=C(C(=O)C[C@]12C)[C@@]1(C)CCC(=O)[C@@H](C)[C@@H]1CC3=O)C(C)C(=O)O (some centres unmarked) [Zhankuic acid A, zhankuic acid A] | 53.23 ± 3.88 (≈ 114 µM) | 47.04 ± 6.191 (≈ 100 µM) | 69.98 ± 18.98 (≈ 149 µM) | –
C=C(CC[C@@H](C)[C@H]1CC[C@H]2C3=C(C(=O)[C@H](O)[C@]12C)[C@@]1(C)CC[C@@H](O)[C@@H](C)[C@@H]1CC3=O)C(C)C(=O)O (some centres unmarked) [Zhankuic acid C, zhankuic acid C] | >80 | >80 | >80 | –
antcin C | 55.02 ± 3.34 | 28.82 ± 6.79 | 47.02 ± 4.45 | –
antcin K | >80 | >80 | >80 | –
